# Laboratory results reported in patent US20110172163A1, “Novel Protease Inhibitors” (QUEENSLAND UNIVERSITY OF TECHNOLOGY, priority 2008, published 2011).
# Peptide text beside a SMILES is read from it. * marks the point of attachment. pNA = O=[N+]([O-])c1ccc(N*)cc1
# Key:
# [1] = comparison value, source not given; cited from earlier work
# KLK4 = KLK4 (Homo sapiens, UniProt Q9Y5K2); assay: Kinetic studies of para-nitroanilide substrates with KLK4; format: biochemical; parameters: pro-region of PSA (KLK3), replacing the native KLK4 pro-region (only if the E. coli preparation was used) (N, cleaved yes); made in house; conditions: relative to the parent substrate (Bz-FVR-pNA or FVQR-pNA)
# Procedure: Human recombinant KLK4 was expressed in E. coli using a previously described chimeric KLK4 plasmid construct where the native pro-region was replaced with the pro-region of PSA, enabling autoactivation. Protein was expressed as inclusion bodies which were isolated and solubilised as described previously to yield 90% pure KLK4. Protein refolding was performed by dilution into 100 volumes of refolding buffer I (2 M urea, 0.1M NaCl, 5 mM GSH, 0.5 mM GSSG, 10 mM benzamidine, 50 mM tris HCl pH 8.0, 2 mM CaCl2) over 44 hours before further dilution into 3 volumes refolding buffer II (refolding buffer I with 0.5 M urea 0.5 mM GSH, 0.05 mM GSSG, 2 mM CaCl2) over another 24 hours. Dialysis was performed as previously described (with additional 2 mM CaCl2 to reduce aggregation) before concentration using UNO sphere Q (Biorad) eluting with tris buffered saline (pH 7.5)/2 mM CaCl2. […]
# Kinetic Studies Active site titration was carried out according to Beynon et al., replacing α1-proteinase inhibitor with soybean trypsin inhibitor. Enzymatic activity assays were performed with 4.9 nM KLK4 and substrate concentrations in the range of 0-600 μM in 300 μL of assay buffer with hydrolysis monitored over 5 minutes as described for the substrate screen. […]
# KLK4, sequence (Q9Y5K2 31-254): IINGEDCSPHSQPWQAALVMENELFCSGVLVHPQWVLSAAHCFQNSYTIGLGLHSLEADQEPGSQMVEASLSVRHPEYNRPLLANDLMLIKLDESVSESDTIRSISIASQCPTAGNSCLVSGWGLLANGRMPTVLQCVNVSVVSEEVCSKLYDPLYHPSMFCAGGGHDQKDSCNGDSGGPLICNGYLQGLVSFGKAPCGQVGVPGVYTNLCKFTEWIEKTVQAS
Compound,half life [1] [h],reduction of kcat (KLK4) [%]
CC(C)c1nc(CN(C)C(=O)N[C@H](C(=O)N[C@@H](Cc2ccccc2)C[C@H](O)[C@H](Cc2ccccc2)NC(=O)OCc2cncs2)C(C)C)cs1 [ritonavir],3.8,–
CC(=O)N[C@@H](Cc1ccccc1)C(=O)N[C@H](C(=O)N[C@@H](CCCNC(=N)N)C(=O)Nc1ccc([N+](=O)[O-])cc1)C(C)C [Ac-FVR-pNA] (Ac-Phe-Val-Arg-pNA),–,47
